From patent US5866562A, “Ring-bridged bis-quinolines” (Bayer Aktiengesellschaft, priority 1996, dated 1999) come the findings set out here.

SMILES strings stand for the structures.

For assay [1], the system named is apamine-sensitive rubidium efflux in PC12 cells (potassium channels). Briefly: Non-radioactive Rb+ efflux assay for the identification of potassium channel modulators. Format: cell-based. To be noted: Rattus norvegicus, PC-12, 10 min, at a test concentration of 10 μM, 50 mM KCl depolarization. As for the experimental part: 2) Non-radioactive Rb^+ efflux assay for the identification of potassium channel modulators
The potassium in PC12 cells is exchanged with rubidium, which is not present in the cells. This exchange is performed by incubating the cells over a period of 4 h in a physiological buffer containing 5.4 mM RbCl without KCl. This rubidium subsequently serves as a tracer for potassium.
The cells laden with Rb^+ in this way are washed three times and then stimulated by depolarization with 50 mM KCl to open potassium channels (10 min), causing Rb^+ to flow out of the cells into the supernatant according to the concentration gradient.
The rubidium contents in the cell supernatant and in the residual cells after they have been lysed with 1% Triton X-100 are then determined by means of atomic absorption spectroscopy. The relative proportion of rubidium in the cell supernatant (=Rb^+ efflux) is used as a measure of the potassium channel activity.
The effect of substances on the channel activity is measured by co-incubating the test substance over the ten-minute stimulation period and determining its effect on the Rb^+ efflux in the manner described above.

The target in assay [2] is apamine binding sites in bovine cerebral membranes (apamine-sensitive potassium channels). Briefly: Binding of ^125 I-apamine to bovine cerebral membranes. To be noted: ^125 I-apamine 30 pM; calf hippocampus membranes; pH 7.4; 60 min on ice. The protocol: 1) Binding of ^125 I-apamine to bovine cerebral membranes
Calfbrains were obtained from the local abattoir. The hippocampus was prepared on ice and a membrane suspension was made up by homogenization twice in buffer (100 mM Tris-HCl, KCl 5 mM, pH 7.4) and centrifugation at 43,000×g. In a total volume of 500 μl, the incubation mixture contained 200 μg of membrane protein, 30 pM ^125 I-apamine and test substances in the concentration range 1×10^-9 to 1×10^-4 M. The non-specific binding of ^125 I-apamine was determined in the presence of 1×10^-7 M unlabelled apamine.
After preincubation for 30 min at room temperature (test substances and membrane homogenate), the samples were placed on ice for 10 min before the radioligand was added. The main incubation time was 60 min on ice. When the reaction time had elapsed, an excess of ice-cooled incubation buffer was added to each sample and the mixture was filtered with suction through cellulose acetate/nitrate membrane filters. The amount of bound ^125 I-apamine was measured with a gamma counter.

The inhibition is the change of the read-out against control, counted positive when it falls. As to `Cc1cc(N2CCCN(c3cc(C)nc4cccc(O)c34)CC2)c2c(O)cccc2n1` [Example 7], the inhibition at 10 µM in assay [1] turned out to be 58%. The Ki is a dissociation constant, usually derived from enzyme kinetics or from competition with a known ligand. `c1ccc2c(N3CCCN(c4ccnc5ccccc45)CC3)ccnc2c1` [Example 1] showed a Ki in assay [2] of 780 nM. `Cc1cc(N2CCCN(c3cc(C)nc4c(C)cccc34)CC2)c2cccc(C)c2n1` [Example 12] showed a Ki in assay [2] of 35 nM. Besides, in assay [1], the inhibition at 10 µM is 73%.
